Reference: ChEMBL document CHEMBL1144967, “Protective effect of imidazolopyrazinone antioxidants on ischemia/reperfusion injury” (2003)

Key:
Cricetinae gen. sp. = experiment: Ability to protect microvascular damages in ischemia/reperfusion (in vivo) was determined by measuring the inhibition of leaky sites, 30-min after the start of reperfusion at 30 mg/kg; assay type: functional, Cricetulus griseus; conditions: 0.5 h
[1] = Antioxidant efficiency of compounds was evaluated by the lag phase duration until onset of linoleate peroxidation induced by AAPH

SMILES | Lag time [1] [min] | inhibition in vivo at 30 mg/kg (Cricetinae gen. sp.) [%]
Cc1ccc(-c2nc3cnccn3c2O)cc1 | 78.7 | 67
Cc1c(C)c2c(c(C)c1O)CCC(C)(C(=O)O)O2 (stereo not drawn) | 128 | 
COc1cc(C(C)=O)ccc1O [APOCYNIN] |  | 59
Oc1c(-c2ccc(Cl)cc2)nc2cnccn12 | 111 | 82
COc1ccc(-c2nc3cnccn3c2O)cc1 | 79.6 | 85
Cc1nc2cnccn2c1O | 134 | 49

More lines, main results first:

Lag time [1] [min] | SMILES | inhibition in vivo at 30 mg/kg (Cricetinae gen. sp.) [%]
74.9 | Oc1c(-c2ccc3ccccc3c2)nc2cnccn12 | 57
146 | Oc1c(-c2ccccc2)nc2cnccn12 | 79
122 | Oc1c(-c2ccc(F)cc2)nc2cnccn12 | 37
77.5 | Oc1c(-c2ccc(-c3ccccc3)cc2)nc2cnccn12 | 71
